US5494932A, “Sulfonic stilbene derivatives in the treatment of viral disease” (Merrell Dow Pharmaceuticals Inc., priority 1991, dated 1996)
Like-named read-outs stand apart in the source and are kept apart here.

How the values were obtained:
Format in all cases: cell-based, HIV-1 (human T cell line JM)
[1] = test system: HIV-1 strain GB8 in JM cells; test: Established HIV-1 (GB8) infection of JM cells, post-infection addition: syncytia and p24 antigen; conditions: 100 μg/ml
HIV-1 = test: Back titration of cell-free supernatants (infectivity) on fresh uninfected JM cells
Protocol: Protocol: JM cells were infected with HIV-1 to give a multiplicity of infection of 0.001. Virus adsorption was for 2 hours at room temperature. The cells were washed and distributed into wells containing different concentrations of test compounds and incubated. After 2 days the cells were observed and syncytia were counted. The cell-free supernatant fluids were harvested at 4 and 6 days post infection and assayed for levels of p24 viral core antigen and after 6 days the supernatants were also titrated to determine levels of infectivity.
*Syncytia-forming unit; cellfree supernatants from virus infected cells
having received the indicated concentration of compounds were incubated
with fresh uninfected JM cells and syncytia were scored to determine the
number of infectious units/ml.
supernatants from virusinfected control cells not having received drug

HIV-1 infected JM cells = test: Treatment of HIV-1 infected JM cells with DIDS, SITS and ddC
Protocol: Protocol: JM cells were infected with HIV to give approximately 100 syncytia after 3 days. Virus adsorption was at room temperature for 2 hours. The cells were then washed thoroughly and distributed in wells of a tissue culture plate at a concentration of 1×10^5 cells/well. At 24 hours post infection either DIDS (100 μg/ml), SITS (100 μg/ml), or ddC (5 μM) were added to wells having infected cells. As virus controls, some wells had no drug added. At 42 hours post infection other wells received either ddC (5 μM), SITS (100 μg/ml), or DIDS (100, 50, 25, 12.5, 6.25 μg/ml). Syncytia were scored at 3 and 4 days post-infection and the supernatant fluids were harvested after 3 and 4 days for p24 core antigen determination.

[2] = test system: HIV-1 strain GB8 in JM cells; test: Established HIV-1 (GB8) infection of JM cells, post-infection addition: syncytia and p24 antigen; conditions: for activity at 100 µg/mL: Human immunodeficiency virus 1, 75 h, read-out: P24 Antigen (75 hours post-infection), %, 100 μg/ml
Protocol: The stilbene disulfonic acids blocked HIV-1 replication when the compounds were added within 2 hours of virus adsorption, i.e., prior to virus penetration, and the cells were cultured in the presence of the inhibitors. These compounds were next examined for antiviral activity at later stages of the infection process. At a MOI of 0.01 infectious units/cell (GB8 virus), viral glycoproteins appear at the surface of JM cells by 24 hours post-infection (p.i.) and initiate fusion with neighboring CD4^+ cells; the syncytial numbers show a good correlation with the production of cell-free virus (Tyms et al., 1990).
In post-treatent experiments, cells were first infected with HIV-1 strain RF or GB8 for 2 hours at 37° C. at a MOI of 0.01 and allowed to grow for either 24 or 43 hours before replating into fresh growth medium containing 100 μg/ml of DIDS, H2 DIDS or SITS. Syncytia were then scored at 52 and 68 hours p.i. in triplicate, and p24 viral core antigen in culture fluids were assayed at 75 hours p.i. as described above.
Protocol: JM cells were infected with HIV at a multiplicity of infection of 0.00025 syncytial forming units per cell. Virus adsorption was at room temperature for one hour. The cells were then washed three times and distributed in wells of a tissue culture plate at a concentration of 2×10^5 cells/well. Either DIDS, SITS or H2 DIDS (all at 100 μg/ml) were added to wells at 0, 24, 43 and 51 hours post-infection. As virus controls some wells had no drug added. Syncytia were scored at 43, 52 and 68 hours post-infection. The cell-free supernatant fluids of the virus control wells were harvested after 33, 43, 51, 68 and 75 hours post-infection. All other wells were harvested 75 hours post-infection. The supernatant fluid was then assayed for p24 viral core antigen.

[3] = 100 μg/ml, time of addition 0 h p.i.
[4] = 100 μg/ml, time of addition 24 h p.i.
[5] = 100 μg/ml, time of addition 43h
[6] = 100 μg/ml, time of addition 43 h p.i.

## O=S(=O)(O)c1cc(N=C=S)ccc1C=Cc1ccc(N=C=S)cc1S(=O)(=O)O [DIDS, 4,4'-diisothiocyanatostilbene-2,2'-disulfonic acid]
[1]; time of addition 0h
  Mean Syncytia 51 hrs: 0
[1]; time of addition 24h
  Mean Syncytia 51 hrs: 0
HIV-1; 12.5 μg/ml
  Back titration of cell-free supernatants at 6 days p.i.: 2.4 × 10^3 SFUs/ml
HIV-1; 50 μg/ml
  Back titration of cell-free supernatants at 6 days p.i.: < 10^1 SFUs/ml
HIV-1; 100 μg/ml
  Back titration of cell-free supernatants at 6 days p.i.: < 10^1 SFUs/ml
HIV-1; data not shown
  viral infectivity in the cell-free supernatants: absence of viral infectivity
HIV-1 infected JM cells; 6 μg/ml, added 42 hr
  Mean syncytia/well 3 days p.i.: As VC
  Mean syncytia/well 4 days p.i.: As VC
  p24 antigen 3 days p.i.: 18000 pg/mL
  p24 antigen 4 days p.i.: 34000 pg/mL
HIV-1 infected JM cells; 12 μg/ml, added 42 hr
  Mean syncytia/well 3 days p.i.: As VC
  Mean syncytia/well 4 days p.i.: As VC
  p24 antigen 3 days p.i.: 210000 pg/mL
  p24 antigen 4 days p.i.: 390000 pg/mL
HIV-1 infected JM cells; 25 μg/ml, added 42 hr
  Mean syncytia/well 3 days p.i.: As VC
  Mean syncytia/well 4 days p.i.: As VC
  p24 antigen 3 days p.i.: 15000 pg/mL
  p24 antigen 4 days p.i.: 59000 pg/mL
HIV-1 infected JM cells; 50 μg/ml, added 42 hr
  Mean syncytia/well 3 days p.i.: > 80
  Mean syncytia/well 4 days p.i.: 100
  p24 antigen 3 days p.i.: 19200 pg/mL
  p24 antigen 4 days p.i.: 63000 pg/mL
HIV-1 infected JM cells; 100 μg/ml, added 24 hr
  Mean syncytia/well 3 days p.i.: 0
  Mean syncytia/well 4 days p.i.: 20
  p24 antigen 3 days p.i.: 6100 pg/mL
  p24 antigen 4 days p.i.: 15800 pg/mL
HIV-1 infected JM cells; 100 μg/ml, added 42 hr
  Mean syncytia/well 3 days p.i.: 34
  Mean syncytia/well 4 days p.i.: 70
  p24 antigen 3 days p.i.: 19800 pg/mL
  p24 antigen 4 days p.i.: 20900 pg/mL
HIV-1 infected JM cells; Human immunodeficiency virus 1, 72 h, 6 μg/ml, added 42 hr, read-out: p24 antigen 3 days p.i., % control
  activity at 6 µg/mL: 38%
HIV-1 infected JM cells; Human immunodeficiency virus 1, 72 h, 12 μg/ml, added 42 hr, read-out: p24 antigen 3 days p.i., % control
  activity at 12 µg/mL: > 100%
HIV-1 infected JM cells; Human immunodeficiency virus 1, 72 h, 25 μg/ml, added 42 hr, read-out: p24 antigen 3 days p.i., % control
  activity at 25 µg/mL: 32%
HIV-1 infected JM cells; Human immunodeficiency virus 1, 72 h, 50 μg/ml, added 42 hr, read-out: p24 antigen 3 days p.i., % control
  activity at 50 µg/mL: 41%
HIV-1 infected JM cells; Human immunodeficiency virus 1, 72 h, 100 μg/ml, added 24 hr, read-out: p24 antigen 3 days p.i., % control
  activity at 100 µg/mL: 13%
HIV-1 infected JM cells; Human immunodeficiency virus 1, 72 h, 100 μg/ml, added 42 hr, read-out: p24 antigen 3 days p.i., % control
  activity at 100 µg/mL: 42%
HIV-1 infected JM cells; Human immunodeficiency virus 1, 96 h, 6 μg/ml, added 42 hr, read-out: p24 antigen 4 days p.i., % control
  activity at 6 µg/mL: 38%
HIV-1 infected JM cells; Human immunodeficiency virus 1, 96 h, 12 μg/ml, added 42 hr, read-out: p24 antigen 4 days p.i., % control
  activity at 12 µg/mL: 44%
HIV-1 infected JM cells; Human immunodeficiency virus 1, 96 h, 25 μg/ml, added 42 hr, read-out: p24 antigen 4 days p.i., % control
  activity at 25 µg/mL: 66%
HIV-1 infected JM cells; Human immunodeficiency virus 1, 96 h, 50 μg/ml, added 42 hr, read-out: p24 antigen 4 days p.i., % control
  activity at 50 µg/mL: 70%
HIV-1 infected JM cells; Human immunodeficiency virus 1, 96 h, 100 μg/ml, added 24 hr, read-out: p24 antigen 4 days p.i., % control
  activity at 100 µg/mL: 18%
HIV-1 infected JM cells; Human immunodeficiency virus 1, 96 h, 100 μg/ml, added 42 hr, read-out: p24 antigen 4 days p.i., % control
  activity at 100 µg/mL: 23%
[2]; 100 μg/ml, added 43 hours p.i.
  syncytia by 68 hours p.i.: completely absent
[2]; 100 μg/ml, addition 24 hours p.i., scored at 52 and 68 hours p.i.
  fusion relative to virus control: completely suppressed fusion
[2]; 100 μg/ml, time of addition 0h
  Mean Syncytia 68 hrs: 0
[2]; 100 μg/ml, time of addition 0 hours
  P24 Antigen (75 hours post-infection): Neg
[2]; [3]
  P24 Antigen 75 h: Neg
  Syncytia at 52h: 0
  Syncytia at 68h: 0
[2]; 100 μg/ml, time of addition 24h
  Mean Syncytia 68 hrs: 0
[2]; 100 μg/ml, time of addition 24 hours
  P24 Antigen (75 hours post-infection): Neg
[2]; [4]
  P24 Antigen 75 h: Neg
  Syncytia at 52h: 0
  Syncytia at 68h: 0
[2]; [5]
  Mean Syncytia 51 hrs: 19
  Mean Syncytia 68 hrs: 0
[2]; 100 μg/ml, time of addition 43 hours
  P24 Antigen (75 hours post-infection): 2793 pg/mL
[2]; [6]
  P24 Antigen 75 h: 2.8 ng/mL
  Syncytia at 52h: 19
  Syncytia at 68h: 0
[2]; 100 μg/ml, time of addition 51h
  Mean Syncytia 68 hrs: 25
[2]; 100 μg/ml, time of addition 51 hours
  P24 Antigen (75 hours post-infection): 49050 pg/mL
[2]; time of addition 0 hours
  activity at 100 µg/mL: > 1%
[2]; time of addition 24 hours
  activity at 100 µg/mL: < 1%
[2]; time of addition 43 hours
  activity at 100 µg/mL: 2.4%
[2]; time of addition 51 hours
  activity at 100 µg/mL: 42%
[2]; established HIV-1 infections
  relative order of antiviral potency: DIDS>H2 DIDS>>SITS
